Measured values: patent US20070270418A1, “Inhibitors of P38 and Methods of Using the Same” (priority 2003, published 2007)

test system: TNFα release from THP-1 cells; experiment: TNFα release from LPS-stimulated THP-1 cells; assay type: cell-based; details: Homo sapiens, THP-1, 18 h, LPS 10 μg/ml, 18 hours; read-out: TNFα (THP-1) IC50
Method in brief: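 THP-1 cells (10^6 cells/ml on resuspension) preincubated with compound 30 min at 37°C, 5% CO2, final DMSO ≤0.5%, then stimulated with 10 μg/ml LPS for 18 h (TNFα). Supernatants collected for TNFα analysis.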

SMILES	IC50 [nM]
CS(=O)(=O)N1CCC(Nc2nccc(-c3c(-c4ccc(F)cc4)nc4occn34)n2)CC1 [CCLXXIX]	5.1
CC(=O)N1CCC(Nc2nccc(-c3c(-c4ccc(F)cc4)nc4occn34)n2)CC1 [CCLXXVIII]	9.26

target: T1, CDK2/cyclinA (Homo sapiens, UniProt P24941); experiment: Broad selectivity panel, 32P incorporation; assay type: biochemical; details: 0.1 μM compound, 40 μM ATP; read-out: Percent inhibition CDK2/cyclinA
T1 construct: purchased Upstate (Charlottesville, Va.)
Method: (§1) Various compounds of the present invention are screened against a panel of 24 additional kinases (Upstate, Charlottesville, Va.). Compounds are tested 0.1 μM and 1 μM in reactions containing 40 μM ATP. Incorporation of radiolabeled phosphate (^32P) into each kinase substrate is measured in the presence and absence of test compound. Results are reported as the percent decrease in the amount of ^32P incorporated into the substrate in the presence of compound, compared to buffer control.

SMILES	inhibition at 0.1 µM [%]
CS(=O)(=O)N1CCC(Nc2nccc(-c3c(-c4ccc(F)cc4)nc4occn34)n2)CC1 [CCLXXIX]	24
CC(=O)N1CCC(Nc2nccc(-c3c(-c4ccc(F)cc4)nc4occn34)n2)CC1 [CCLXXVIII]	1

same assay, conditions: 1 μM compound, 40 μM ATP; read-out: Percent inhibition CDK2/cyclinA

SMILES	inhibition at 1 µM [%]
CS(=O)(=O)N1CCC(Nc2nccc(-c3c(-c4ccc(F)cc4)nc4occn34)n2)CC1 [CCLXXIX]	65
CC(=O)N1CCC(Nc2nccc(-c3c(-c4ccc(F)cc4)nc4occn34)n2)CC1 [CCLXXVIII]	20

target: T2, CK2 (Homo sapiens, UniProt P68400); experiment: Broad selectivity panel, 32P incorporation; assay type: biochemical; details: 0.1 μM compound, 40 μM ATP; read-out: Percent inhibition CK2
T2 construct: purchased Upstate (Charlottesville, Va.)
T2 sequence (P68400 whole entry): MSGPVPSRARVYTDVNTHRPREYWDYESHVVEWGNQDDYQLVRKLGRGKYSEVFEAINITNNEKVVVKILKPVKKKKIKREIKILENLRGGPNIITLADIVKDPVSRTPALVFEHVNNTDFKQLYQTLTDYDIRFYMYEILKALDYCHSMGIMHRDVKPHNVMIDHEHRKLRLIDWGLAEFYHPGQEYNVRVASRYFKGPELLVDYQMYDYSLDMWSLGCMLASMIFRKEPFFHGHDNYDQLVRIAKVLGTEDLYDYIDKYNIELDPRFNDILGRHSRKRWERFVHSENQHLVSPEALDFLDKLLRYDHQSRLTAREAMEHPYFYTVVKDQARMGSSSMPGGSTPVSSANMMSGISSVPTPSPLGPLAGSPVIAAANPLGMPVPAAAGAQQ
T2 sequence (P67870 whole entry partner): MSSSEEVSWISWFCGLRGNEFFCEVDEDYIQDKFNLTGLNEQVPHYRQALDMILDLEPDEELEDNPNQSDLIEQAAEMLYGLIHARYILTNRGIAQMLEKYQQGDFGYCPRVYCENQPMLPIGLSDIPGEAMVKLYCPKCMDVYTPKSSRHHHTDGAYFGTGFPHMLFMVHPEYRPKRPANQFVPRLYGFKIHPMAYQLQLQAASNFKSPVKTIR
Method: as §1

SMILES	inhibition at 0.1 µM [%]
CS(=O)(=O)N1CCC(Nc2nccc(-c3c(-c4ccc(F)cc4)nc4occn34)n2)CC1 [CCLXXIX]	8
CC(=O)N1CCC(Nc2nccc(-c3c(-c4ccc(F)cc4)nc4occn34)n2)CC1 [CCLXXVIII]	5

same assay, conditions: 1 μM compound, 40 μM ATP; read-out: Percent inhibition CK2

SMILES	inhibition at 1 µM [%]
CS(=O)(=O)N1CCC(Nc2nccc(-c3c(-c4ccc(F)cc4)nc4occn34)n2)CC1 [CCLXXIX]	4
CC(=O)N1CCC(Nc2nccc(-c3c(-c4ccc(F)cc4)nc4occn34)n2)CC1 [CCLXXVIII]	10

target: T3, GSK3β (Homo sapiens, UniProt P49841); experiment: Broad selectivity panel, 32P incorporation; assay type: biochemical; details: 0.1 μM compound, 40 μM ATP; read-out: Percent inhibition GSK3β
T3 construct: purchased Upstate (Charlottesville, Va.)
T3 sequence (P49841 whole entry, species assumed): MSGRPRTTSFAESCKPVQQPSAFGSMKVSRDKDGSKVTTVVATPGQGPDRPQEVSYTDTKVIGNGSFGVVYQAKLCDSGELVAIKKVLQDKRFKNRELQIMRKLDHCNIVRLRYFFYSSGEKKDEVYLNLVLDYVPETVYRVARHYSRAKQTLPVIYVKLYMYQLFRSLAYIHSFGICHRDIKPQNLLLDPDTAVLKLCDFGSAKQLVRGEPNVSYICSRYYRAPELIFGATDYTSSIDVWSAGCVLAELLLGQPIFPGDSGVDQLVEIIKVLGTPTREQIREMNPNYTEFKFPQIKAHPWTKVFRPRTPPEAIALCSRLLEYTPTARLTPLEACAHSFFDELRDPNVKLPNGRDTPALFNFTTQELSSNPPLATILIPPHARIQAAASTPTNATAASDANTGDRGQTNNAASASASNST
Method: as §1

SMILES	inhibition at 0.1 µM [%]
CS(=O)(=O)N1CCC(Nc2nccc(-c3c(-c4ccc(F)cc4)nc4occn34)n2)CC1 [CCLXXIX]	15
CC(=O)N1CCC(Nc2nccc(-c3c(-c4ccc(F)cc4)nc4occn34)n2)CC1 [CCLXXVIII]	16

same assay, conditions: 1 μM compound, 40 μM ATP; read-out: Percent inhibition GSK3β

SMILES	inhibition at 1 µM [%]
CS(=O)(=O)N1CCC(Nc2nccc(-c3c(-c4ccc(F)cc4)nc4occn34)n2)CC1 [CCLXXIX]	57
CC(=O)N1CCC(Nc2nccc(-c3c(-c4ccc(F)cc4)nc4occn34)n2)CC1 [CCLXXVIII]	66

target: T4, JNK1α1 (Homo sapiens, UniProt P45983); experiment: Broad selectivity panel, 32P incorporation; assay type: biochemical; details: 0.1 μM compound, 40 μM ATP; read-out: Percent inhibition JNK1α1
T4 construct: purchased Upstate (Charlottesville, Va.)
T4 sequence (P45983 1-384 isoform P45983-2, species assumed): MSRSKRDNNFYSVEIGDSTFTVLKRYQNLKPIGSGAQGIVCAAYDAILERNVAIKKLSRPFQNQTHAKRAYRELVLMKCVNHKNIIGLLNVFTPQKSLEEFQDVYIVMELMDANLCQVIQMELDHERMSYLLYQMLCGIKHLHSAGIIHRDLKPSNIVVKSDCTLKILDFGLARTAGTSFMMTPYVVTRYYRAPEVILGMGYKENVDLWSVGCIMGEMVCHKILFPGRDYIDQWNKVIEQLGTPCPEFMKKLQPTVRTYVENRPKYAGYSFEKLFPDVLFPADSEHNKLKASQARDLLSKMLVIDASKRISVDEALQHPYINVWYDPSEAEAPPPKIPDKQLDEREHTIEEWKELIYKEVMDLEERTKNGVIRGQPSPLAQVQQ
Method: as §1

SMILES	inhibition at 0.1 µM [%]
CS(=O)(=O)N1CCC(Nc2nccc(-c3c(-c4ccc(F)cc4)nc4occn34)n2)CC1 [CCLXXIX]	37
CC(=O)N1CCC(Nc2nccc(-c3c(-c4ccc(F)cc4)nc4occn34)n2)CC1 [CCLXXVIII]	-13

same assay, conditions: 1 μM compound, 40 μM ATP; read-out: Percent inhibition JNK1α1

SMILES	inhibition at 1 µM [%]
CS(=O)(=O)N1CCC(Nc2nccc(-c3c(-c4ccc(F)cc4)nc4occn34)n2)CC1 [CCLXXIX]	86
CC(=O)N1CCC(Nc2nccc(-c3c(-c4ccc(F)cc4)nc4occn34)n2)CC1 [CCLXXVIII]	61

target: T5, MAPK2 (Homo sapiens, UniProt P28482); experiment: Broad selectivity panel, 32P incorporation; assay type: biochemical; details: 0.1 μM compound, 40 μM ATP; read-out: Percent inhibition MAPK2
T5 construct: purchased Upstate (Charlottesville, Va.)
T5 sequence (P28482 whole entry): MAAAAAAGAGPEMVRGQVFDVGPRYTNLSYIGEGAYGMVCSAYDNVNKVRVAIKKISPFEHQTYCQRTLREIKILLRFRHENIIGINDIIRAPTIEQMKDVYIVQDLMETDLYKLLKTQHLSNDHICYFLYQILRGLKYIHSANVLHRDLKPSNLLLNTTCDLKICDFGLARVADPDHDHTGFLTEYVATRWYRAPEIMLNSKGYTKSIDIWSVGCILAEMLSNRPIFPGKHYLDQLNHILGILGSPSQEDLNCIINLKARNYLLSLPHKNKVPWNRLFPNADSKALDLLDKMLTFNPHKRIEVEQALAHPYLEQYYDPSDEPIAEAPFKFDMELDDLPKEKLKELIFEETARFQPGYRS
Method: as §1

SMILES	inhibition at 0.1 µM [%]
CS(=O)(=O)N1CCC(Nc2nccc(-c3c(-c4ccc(F)cc4)nc4occn34)n2)CC1 [CCLXXIX]	14
CC(=O)N1CCC(Nc2nccc(-c3c(-c4ccc(F)cc4)nc4occn34)n2)CC1 [CCLXXVIII]	18

same assay, conditions: 1 μM compound, 40 μM ATP; read-out: Percent inhibition MAPK2

SMILES	inhibition at 1 µM [%]
CS(=O)(=O)N1CCC(Nc2nccc(-c3c(-c4ccc(F)cc4)nc4occn34)n2)CC1 [CCLXXIX]	43
CC(=O)N1CCC(Nc2nccc(-c3c(-c4ccc(F)cc4)nc4occn34)n2)CC1 [CCLXXVIII]	42

target: T6, MEK1 (Homo sapiens, UniProt Q02750); experiment: Broad selectivity panel, 32P incorporation; assay type: biochemical; details: 0.1 μM compound, 40 μM ATP; read-out: Percent inhibition MEK1
T6 construct: purchased Upstate (Charlottesville, Va.)
T6 sequence (Q02750 whole entry, species assumed): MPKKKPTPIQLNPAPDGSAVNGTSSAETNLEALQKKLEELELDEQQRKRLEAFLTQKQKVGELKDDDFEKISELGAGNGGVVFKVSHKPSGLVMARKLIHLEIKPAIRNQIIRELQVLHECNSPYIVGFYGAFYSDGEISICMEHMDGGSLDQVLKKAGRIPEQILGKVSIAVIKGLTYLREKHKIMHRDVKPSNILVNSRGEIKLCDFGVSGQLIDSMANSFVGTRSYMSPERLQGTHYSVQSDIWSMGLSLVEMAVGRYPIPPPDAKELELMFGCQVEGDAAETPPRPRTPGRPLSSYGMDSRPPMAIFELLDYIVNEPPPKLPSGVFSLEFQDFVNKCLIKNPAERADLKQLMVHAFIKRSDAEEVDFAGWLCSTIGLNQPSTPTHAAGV
Method: as §1

SMILES	inhibition at 0.1 µM [%]
CS(=O)(=O)N1CCC(Nc2nccc(-c3c(-c4ccc(F)cc4)nc4occn34)n2)CC1 [CCLXXIX]	7
CC(=O)N1CCC(Nc2nccc(-c3c(-c4ccc(F)cc4)nc4occn34)n2)CC1 [CCLXXVIII]	6

same assay, conditions: 1 μM compound, 40 μM ATP; read-out: Percent inhibition MEK1

SMILES	inhibition at 1 µM [%]
CS(=O)(=O)N1CCC(Nc2nccc(-c3c(-c4ccc(F)cc4)nc4occn34)n2)CC1 [CCLXXIX]	11
CC(=O)N1CCC(Nc2nccc(-c3c(-c4ccc(F)cc4)nc4occn34)n2)CC1 [CCLXXVIII]	13

target: T7, MKK6 (Homo sapiens, UniProt P52564); experiment: Broad selectivity panel, 32P incorporation; assay type: biochemical; details: 0.1 μM compound, 40 μM ATP; read-out: Percent inhibition MKK6
T7 construct: purchased Upstate (Charlottesville, Va.)
T7 sequence (P52564 1-334): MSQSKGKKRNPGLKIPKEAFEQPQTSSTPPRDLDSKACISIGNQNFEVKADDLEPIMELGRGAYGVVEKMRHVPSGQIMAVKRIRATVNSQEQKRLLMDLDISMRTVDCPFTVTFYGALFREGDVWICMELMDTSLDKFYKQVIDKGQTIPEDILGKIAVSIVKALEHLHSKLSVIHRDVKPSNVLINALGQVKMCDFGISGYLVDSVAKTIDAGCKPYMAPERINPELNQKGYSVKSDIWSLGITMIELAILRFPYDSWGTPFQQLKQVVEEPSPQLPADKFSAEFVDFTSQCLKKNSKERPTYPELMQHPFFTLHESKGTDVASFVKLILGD
Method: as §1

SMILES	inhibition at 0.1 µM [%]
CS(=O)(=O)N1CCC(Nc2nccc(-c3c(-c4ccc(F)cc4)nc4occn34)n2)CC1 [CCLXXIX]	8
CC(=O)N1CCC(Nc2nccc(-c3c(-c4ccc(F)cc4)nc4occn34)n2)CC1 [CCLXXVIII]	26

same assay, conditions: 1 μM compound, 40 μM ATP; read-out: Percent inhibition MKK6

SMILES	inhibition at 1 µM [%]
CS(=O)(=O)N1CCC(Nc2nccc(-c3c(-c4ccc(F)cc4)nc4occn34)n2)CC1 [CCLXXIX]	90
CC(=O)N1CCC(Nc2nccc(-c3c(-c4ccc(F)cc4)nc4occn34)n2)CC1 [CCLXXVIII]	83

target: T8, PDGFR α (Homo sapiens, UniProt P16234); experiment: Broad selectivity panel, 32P incorporation; assay type: biochemical; details: 0.1 μM compound, 40 μM ATP; read-out: Percent inhibition PDGFR α
T8 construct: purchased Upstate (Charlottesville, Va.)
T8 sequence (P16234 24-1089, species assumed): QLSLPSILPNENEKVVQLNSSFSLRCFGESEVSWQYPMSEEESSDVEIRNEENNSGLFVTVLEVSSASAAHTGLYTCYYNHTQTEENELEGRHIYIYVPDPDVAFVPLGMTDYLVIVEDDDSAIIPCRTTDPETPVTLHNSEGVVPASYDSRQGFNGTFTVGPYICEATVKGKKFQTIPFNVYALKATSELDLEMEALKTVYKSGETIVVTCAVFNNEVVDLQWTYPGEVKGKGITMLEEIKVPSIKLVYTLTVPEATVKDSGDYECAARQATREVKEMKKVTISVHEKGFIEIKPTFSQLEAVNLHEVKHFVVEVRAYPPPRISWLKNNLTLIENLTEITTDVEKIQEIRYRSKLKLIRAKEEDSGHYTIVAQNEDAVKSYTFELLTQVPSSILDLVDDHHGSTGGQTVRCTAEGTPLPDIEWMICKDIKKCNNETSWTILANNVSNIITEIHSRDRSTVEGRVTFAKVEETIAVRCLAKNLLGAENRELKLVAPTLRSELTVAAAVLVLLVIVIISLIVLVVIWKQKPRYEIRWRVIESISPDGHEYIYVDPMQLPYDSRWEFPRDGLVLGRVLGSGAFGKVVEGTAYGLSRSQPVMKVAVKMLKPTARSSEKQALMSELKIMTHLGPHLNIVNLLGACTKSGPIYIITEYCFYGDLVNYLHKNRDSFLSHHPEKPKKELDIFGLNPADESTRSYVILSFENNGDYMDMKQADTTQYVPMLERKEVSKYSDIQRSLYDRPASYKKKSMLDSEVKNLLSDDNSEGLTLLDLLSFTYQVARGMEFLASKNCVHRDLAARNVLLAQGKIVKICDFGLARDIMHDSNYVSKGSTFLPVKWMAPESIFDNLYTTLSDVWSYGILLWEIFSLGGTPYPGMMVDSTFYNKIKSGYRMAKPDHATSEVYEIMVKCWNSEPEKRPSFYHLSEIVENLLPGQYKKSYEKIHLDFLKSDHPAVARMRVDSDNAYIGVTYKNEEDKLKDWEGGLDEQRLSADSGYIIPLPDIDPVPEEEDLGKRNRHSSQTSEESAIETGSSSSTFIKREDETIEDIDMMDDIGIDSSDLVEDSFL
Method: as §1

SMILES	inhibition at 0.1 µM [%]
CS(=O)(=O)N1CCC(Nc2nccc(-c3c(-c4ccc(F)cc4)nc4occn34)n2)CC1 [CCLXXIX]	0
CC(=O)N1CCC(Nc2nccc(-c3c(-c4ccc(F)cc4)nc4occn34)n2)CC1 [CCLXXVIII]	23

same assay, conditions: 1 μM compound, 40 μM ATP; read-out: Percent inhibition PDGFR α

SMILES	inhibition at 1 µM [%]
CS(=O)(=O)N1CCC(Nc2nccc(-c3c(-c4ccc(F)cc4)nc4occn34)n2)CC1 [CCLXXIX]	-9
CC(=O)N1CCC(Nc2nccc(-c3c(-c4ccc(F)cc4)nc4occn34)n2)CC1 [CCLXXVIII]	17

target: T9, PKA (Homo sapiens, UniProt P17612); experiment: Broad selectivity panel, 32P incorporation; assay type: biochemical; details: 0.1 μM compound, 40 μM ATP; read-out: Percent inhibition PKA
T9 construct: purchased Upstate (Charlottesville, Va.)
Method: as §1

SMILES	inhibition at 0.1 µM [%]
CS(=O)(=O)N1CCC(Nc2nccc(-c3c(-c4ccc(F)cc4)nc4occn34)n2)CC1 [CCLXXIX]	6
CC(=O)N1CCC(Nc2nccc(-c3c(-c4ccc(F)cc4)nc4occn34)n2)CC1 [CCLXXVIII]	-6

same assay, conditions: 1 μM compound, 40 μM ATP; read-out: Percent inhibition PKA

SMILES	inhibition at 1 µM [%]
CS(=O)(=O)N1CCC(Nc2nccc(-c3c(-c4ccc(F)cc4)nc4occn34)n2)CC1 [CCLXXIX]	-2
CC(=O)N1CCC(Nc2nccc(-c3c(-c4ccc(F)cc4)nc4occn34)n2)CC1 [CCLXXVIII]	10

target: T10, SAPK4 (Homo sapiens, UniProt O15264); experiment: Broad selectivity panel, 32P incorporation; assay type: biochemical; details: 0.1 μM compound, 40 μM ATP; read-out: Percent inhibition SAPK4
T10 construct: purchased Upstate (Charlottesville, Va.)
T10 sequence (O15264 1-365): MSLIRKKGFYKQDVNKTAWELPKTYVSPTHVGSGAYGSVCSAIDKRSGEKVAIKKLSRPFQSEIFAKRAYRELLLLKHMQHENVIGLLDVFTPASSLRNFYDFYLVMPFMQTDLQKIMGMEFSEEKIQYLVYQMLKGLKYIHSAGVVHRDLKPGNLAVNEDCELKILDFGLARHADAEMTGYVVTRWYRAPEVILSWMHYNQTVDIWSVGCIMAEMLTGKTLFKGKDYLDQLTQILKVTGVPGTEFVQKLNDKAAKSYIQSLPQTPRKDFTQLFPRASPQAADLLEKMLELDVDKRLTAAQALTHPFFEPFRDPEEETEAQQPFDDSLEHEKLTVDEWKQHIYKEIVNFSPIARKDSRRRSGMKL
Method: as §1

SMILES	inhibition at 0.1 µM [%]
CS(=O)(=O)N1CCC(Nc2nccc(-c3c(-c4ccc(F)cc4)nc4occn34)n2)CC1 [CCLXXIX]	3
CC(=O)N1CCC(Nc2nccc(-c3c(-c4ccc(F)cc4)nc4occn34)n2)CC1 [CCLXXVIII]	-3

same assay, conditions: 1 μM compound, 40 μM ATP; read-out: Percent inhibition SAPK4

SMILES	inhibition at 1 µM [%]
CS(=O)(=O)N1CCC(Nc2nccc(-c3c(-c4ccc(F)cc4)nc4occn34)n2)CC1 [CCLXXIX]	0
CC(=O)N1CCC(Nc2nccc(-c3c(-c4ccc(F)cc4)nc4occn34)n2)CC1 [CCLXXVIII]	-4
